According to ChEMBL document CHEMBL1806354 (J Med Chem, 2011):

What was measured:
Assay type in all cases: cell-based
[1] = target: T1, 5-hydroxytryptamine receptor 2A (Homo sapiens, UniProt P28223); assay: Displacement of [3H]ketanserin from 5-HT2A receptor expressed in CHO cells at 10 uM after 50 mins by beta liquid scintillation counter
D(1A) dopamine receptor [2] = target: T2, D(1A) dopamine receptor (Homo sapiens, UniProt P21728); assay: Displacement of [3H]SCH23390 from dopamine D1 receptor expressed in HEK293 cells at 10 uM after 50 mins by beta liquid scintillation counter
D(2) dopamine receptor [3] = target: T3, D(2) dopamine receptor (Homo sapiens, UniProt P14416); assay: Displacement of [3H]spiperone from dopamine D2 receptor expressed in HEK293 cells at 10 uM after 50 mins by beta liquid scintillation counter
[4] = target: T4, 5-hydroxytryptamine receptor 1A (Homo sapiens, UniProt P08908); assay: Displacement of [3H]-8-OH-DPAT from 5-HT1A receptor expressed in CHO cells after 50 mins by beta liquid scintillation counter
T4 sequence (P08908 whole entry): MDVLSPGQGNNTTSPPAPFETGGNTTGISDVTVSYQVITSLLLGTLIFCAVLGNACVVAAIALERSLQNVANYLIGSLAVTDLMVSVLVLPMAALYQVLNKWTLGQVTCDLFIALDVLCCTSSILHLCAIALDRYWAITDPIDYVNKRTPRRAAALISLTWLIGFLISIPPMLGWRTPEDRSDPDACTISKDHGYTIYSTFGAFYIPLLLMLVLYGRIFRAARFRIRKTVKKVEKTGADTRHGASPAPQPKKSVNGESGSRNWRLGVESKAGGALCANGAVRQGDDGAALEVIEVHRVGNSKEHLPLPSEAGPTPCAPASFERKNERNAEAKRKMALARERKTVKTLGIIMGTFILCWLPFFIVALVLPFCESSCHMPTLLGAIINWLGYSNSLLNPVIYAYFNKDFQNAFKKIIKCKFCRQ

D(2) dopamine receptor [5] = target: T3, D(2) dopamine receptor; assay: Displacement of [3H]spiperone from dopamine D2 receptor expressed in HEK293 cells after 50 mins by beta liquid scintillation counter
D(1A) dopamine receptor [6] = target: T2, D(1A) dopamine receptor; assay: Displacement of [3H]SCH23390 from dopamine D1 receptor expressed in HEK293 cells after 50 mins by beta liquid scintillation counter
[7] = target: T1, 5-hydroxytryptamine receptor 2A; assay: Displacement of [3H]ketanserin from 5-HT2A receptor expressed in CHO cells after 50 mins by beta liquid scintillation counter

T1 sequence (P28223 whole entry): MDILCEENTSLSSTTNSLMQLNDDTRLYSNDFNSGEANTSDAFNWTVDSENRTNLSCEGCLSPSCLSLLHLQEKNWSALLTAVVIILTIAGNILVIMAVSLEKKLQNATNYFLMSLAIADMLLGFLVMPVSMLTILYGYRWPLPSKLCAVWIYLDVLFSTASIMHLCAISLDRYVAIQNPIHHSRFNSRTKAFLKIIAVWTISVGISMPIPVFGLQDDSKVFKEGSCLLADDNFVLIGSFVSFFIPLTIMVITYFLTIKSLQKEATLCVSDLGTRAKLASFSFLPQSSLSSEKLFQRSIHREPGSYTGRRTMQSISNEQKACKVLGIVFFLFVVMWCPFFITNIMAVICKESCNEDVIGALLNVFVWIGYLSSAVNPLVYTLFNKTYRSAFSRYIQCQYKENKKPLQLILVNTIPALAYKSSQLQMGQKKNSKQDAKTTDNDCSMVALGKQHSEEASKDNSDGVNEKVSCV
T3 sequence (P14416 whole entry): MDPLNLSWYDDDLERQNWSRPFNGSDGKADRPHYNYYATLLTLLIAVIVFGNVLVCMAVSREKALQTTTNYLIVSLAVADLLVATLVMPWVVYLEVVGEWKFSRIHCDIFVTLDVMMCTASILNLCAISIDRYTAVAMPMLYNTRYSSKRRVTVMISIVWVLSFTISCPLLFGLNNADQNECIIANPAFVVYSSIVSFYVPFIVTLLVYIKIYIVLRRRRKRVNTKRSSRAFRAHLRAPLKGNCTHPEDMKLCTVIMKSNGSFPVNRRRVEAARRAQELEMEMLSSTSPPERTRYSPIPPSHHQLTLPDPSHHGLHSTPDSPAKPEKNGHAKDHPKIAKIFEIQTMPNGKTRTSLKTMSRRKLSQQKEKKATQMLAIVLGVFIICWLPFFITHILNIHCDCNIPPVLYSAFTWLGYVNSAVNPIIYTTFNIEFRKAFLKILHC
T2 sequence (P21728 whole entry): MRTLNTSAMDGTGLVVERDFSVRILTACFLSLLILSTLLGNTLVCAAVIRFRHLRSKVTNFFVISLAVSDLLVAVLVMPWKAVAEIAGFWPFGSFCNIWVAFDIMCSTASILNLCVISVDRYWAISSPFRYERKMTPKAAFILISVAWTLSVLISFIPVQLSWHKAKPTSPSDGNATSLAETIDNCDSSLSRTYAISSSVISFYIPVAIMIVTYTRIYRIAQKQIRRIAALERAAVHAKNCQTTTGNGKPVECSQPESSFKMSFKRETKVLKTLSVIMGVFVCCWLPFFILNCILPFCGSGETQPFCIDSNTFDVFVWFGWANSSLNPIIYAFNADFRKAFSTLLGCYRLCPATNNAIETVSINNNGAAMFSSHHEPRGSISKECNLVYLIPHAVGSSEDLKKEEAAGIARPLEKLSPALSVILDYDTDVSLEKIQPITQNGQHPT

Row | inhibition (D(2) dopamine receptor [3]) | Compound | inhibition [1] | inhibition (D(1A) dopamine receptor [2]) | Ki [4] | Ki (D(2) dopamine receptor [5]) | Ki (D(1A) dopamine receptor [6]) | Ki [7]
1 | 9.6% | CCCN1CCc2cccc3c2C1Cc1cccc(CNC(=O)CCCCC2CCSS2)c1-3 (racemic) |  | 32.4% |  |  |  | 
2 | 13.5% | CCCC(=O)Nc1cccc2c1-c1cccc3c1[C@@H](C2)N(CCC)CC3 | 16.6% | 16.1% | 380 nM |  |  | 
3 | 55.2% | CCCN1CCc2cccc3c2C1Cc1cccc(OC(=O)CCCCC2CCSS2)c1-3 (racemic) | 14.7% | 62.7% | 137 nM |  |  | 
4 | 3.1% | CCCN1CCc2cccc3c2C1Cc1cccc(CNC(=S)CCCCC2CCSS2)c1-3 (racemic) |  | 11.4% |  |  |  | 
5 |  | CCCN1CCc2cccc3c2C1Cc1cccc(OC(=O)NC(C)(C)C)c1-3 (racemic) | 20% | 44.2% | 217 nM | 2800 nM |  | 
6 |  | CCCN1CCc2cccc3c2[C@H]1Cc1cccc(OC(=O)CCCC[C@H]2CCSS2)c1-3 |  | 64.8% | 35 nM | 342 nM |  | 
7 |  | CCCN1CCc2cccc3c2[C@H]1Cc1cccc(OC(=O)NCc2ccccc2)c1-3 | 76.6% |  | 90 nM | 2200 nM | 2400 nM | 
8 |  | CCCC(=O)Oc1cccc2c1-c1cccc3c1[C@@H](C2)N(CCC)CC3 | 68% | 63.2% | 11.9 nM | 55.5 nM |  | 
9 |  | CCCN1CCc2cccc3c2C1Cc1cccc(O)c1-3 (racemic) | 14.1% | 55.9% | 66 nM |  |  | 
10 |  | CCCN1CCc2cccc3c2[C@H]1Cc1cccc(O)c1-3 | 63% | 63.2% |  |  |  | 
11 |  | CCCN1CCc2cccc3c2C1Cc1cccc(OC(=O)Nc2cccc4ccccc24)c1-3 (stereo not given) | 21.7% | 48% | 124 nM | 2000 nM |  | 
12 |  | CCCN1CCc2cccc3c2[C@H]1Cc1cccc(N)c1-3 | 49.4% | 57.1% | 276 nM | 352 nM |  | 
13 |  | CCCN1CCc2cccc3c2C1Cc1cccc(OC(=O)CSc2ccccc2)c1-3 (racemic) |  | 67.1% |  | 851 nM |  | 
14 | 19.5% | CCCN1CCc2cccc3c2C1Cc1cccc(-c2noc(CCCCC4CCSS4)n2)c1-3 (racemic) |  | 57% |  |  |  | 
15 | 33.1% | CCCN1CCc2cccc3c2[C@H]1Cc1cccc(NC(=O)CCCCC2CCSS2)c1-3 (stereo not given in full) | 36.9% | 27.2% | 249 nM |  |  | 
16 |  | CCCN1CCc2cccc3c2C1Cc1cccc(OC(=O)NCc2ccccc2)c1-3 (racemic) |  |  | 259 nM | 4300 nM | 4200 nM | 2000 nM
17 |  | CCCN1CCc2cccc3c2[C@H]1Cc1cccc(OC(=O)CCCC[C@@H]2CCSS2)c1-3 |  | 69.6% | 45 nM | 296 nM |  | 
18 | 15.7% | CCCN1CCc2cccc3c2C1Cc1cccc(CNC(=O)NCC)c1-3 (racemic) |  | 35.4% |  |  |  | 
19 |  | CCCN1CCc2cccc3c2[C@H]1Cc1cccc(OC(=O)NC(C)(C)C)c1-3 | 29.2% | 70.2% | 96 nM | 871 nM |  | 

Row | Compound | inhibition (D(2) dopamine receptor [3]) | inhibition [1] | inhibition (D(1A) dopamine receptor [2]) | Ki [4] | Ki (D(2) dopamine receptor [5]) | Ki (D(1A) dopamine receptor [6]) | Ki [7]
20 | CCCCNC(=O)Oc1cccc2c1-c1cccc3c1C(C2)N(CCC)CC3 (racemic) | 53.2% | 37.4% | 36.5% | 385 nM |  |  | 
21 | CCCNC(=O)Oc1cccc2c1-c1cccc3c1C(C2)N(CCC)CC3 (racemic) | 52.7% | 30.1% | 26.2% | 258 nM |  |  | 
22 | CCCCNC(=O)Oc1cccc2c1-c1cccc3c1[C@@H](C2)N(CCC)CC3 | 40.9% | 34.9% | 53.6% | 89 nM |  |  | 
23 | CCCNC(=O)Oc1cccc2c1-c1cccc3c1[C@@H](C2)N(CCC)CC3 | 50.9% | 16% | 56.3% | 87 nM |  |  | 
24 | CCCN1CCc2cccc3c2C1Cc1cccc(OC(=O)NCC)c1-3 (racemic) | 56.7% | 19.8% | 46.1% | 218 nM |  |  | 
25 | CCCN1CCc2cccc3c2[C@H]1Cc1cccc(OC(=O)NCC)c1-3 | 44.3% | 14.5% | 54.6% | 94 nM |  |  | 
